Measured values as given in US20120238549A1, “Nuclear Hormone Receptor Modulators” (ABBOTT LABORATORIES, priority 2011, published 2012).

Each molecule was assayed against T1, Glucocorticoid Receptor (GR) (Homo sapiens, UniProt P04150) (assay: GR Florescence Polarization Assay (PolarScreen Glucocorticoid Receptor Competitor Assay, Red)). Settings: Fluorescense polarization binding ranges; competition with fluorescent glucocorticoid, incubated overnight at 4° C.
T1 construct: purchased Invitrogen P2893
T1 sequence (P04150 1-777): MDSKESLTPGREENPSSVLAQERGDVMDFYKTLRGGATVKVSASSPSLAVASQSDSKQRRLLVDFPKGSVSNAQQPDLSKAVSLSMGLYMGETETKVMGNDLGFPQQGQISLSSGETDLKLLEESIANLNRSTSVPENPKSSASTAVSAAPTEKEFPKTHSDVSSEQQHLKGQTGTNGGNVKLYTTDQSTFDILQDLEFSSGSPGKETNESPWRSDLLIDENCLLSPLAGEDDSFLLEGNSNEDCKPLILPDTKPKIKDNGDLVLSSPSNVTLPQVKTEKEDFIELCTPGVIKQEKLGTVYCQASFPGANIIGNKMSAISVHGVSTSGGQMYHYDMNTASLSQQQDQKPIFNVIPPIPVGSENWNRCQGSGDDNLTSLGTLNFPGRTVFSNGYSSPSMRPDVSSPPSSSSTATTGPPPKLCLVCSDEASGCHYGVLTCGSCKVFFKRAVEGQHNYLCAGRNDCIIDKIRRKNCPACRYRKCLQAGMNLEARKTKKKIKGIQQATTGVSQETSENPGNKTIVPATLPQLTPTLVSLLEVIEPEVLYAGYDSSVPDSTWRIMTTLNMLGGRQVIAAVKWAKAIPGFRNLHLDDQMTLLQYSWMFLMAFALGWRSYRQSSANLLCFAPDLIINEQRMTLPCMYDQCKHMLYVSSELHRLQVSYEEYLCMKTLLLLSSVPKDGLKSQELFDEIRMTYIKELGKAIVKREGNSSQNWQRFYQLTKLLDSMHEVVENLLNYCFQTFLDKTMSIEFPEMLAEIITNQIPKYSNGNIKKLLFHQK
Experimental: GR Florescence Polarization Assay Florescence polarization assays were carried out using the PolarScreen™ Glucocorticoid Receptor Competitor Assay, Red from Invitrogen (P2893). The assay buffer was prepared according to the manufacturer's protocol and used to dilute the fluorescent glucocorticoid and GR. Compounds were prepared and serial diluted 1:4 in DMSO. Compound, fluorescent glucocorticoid and GR were added in a final volume of 20 μL and incubated overnight at 4° C. Fluorescent polarization was measured on the Perkinelmer Envision®.

SMILES | IC50 [µM]
CC[C@@]1(O)CC[C@@]2(Cc3ccccc3)c3cc(C(=O)Nc4cccnc4C)cn3CCC[C@H]2C1 (racemic) [Example 144, (7aS,9R,11aS)-11a-Benzyl-9-ethyl-9-hydroxy-N-(2-methylpyridin-3-yl)-6,7,7a,8,9,10,11,11a-octahydro-5H-benzo[c]pyrrolo[1,2-a]azepine-2-carboxamide; compound with (7aR,9S,11aR)-11a-benzyl-9-ethyl-9-hydroxy-N-(2-methylpyridin-3-yl)-6,7,7a,8,9,10,11,11a-octahydro-5H-benzo[c]pyrrolo[1,2-a]azepine-2-carboxamide] | 1 to 10
CCC[C@@]1(O)CC[C@@]2(CC)c3ccc(-c4nc5ccccc5[nH]4)cc3CCC[C@H]2C1 (racemic) [Example 146, (3R,4aS,11bR)-9-(1H-Benzoimidazol-2-yl)-11b-ethyl-3-propyl-2,3,4,4a,5,6,7,11b-octahydro-1H-dibenzo[a,c]cyclohepten-3-ol; compound with (3S,4aR,11bS)-9-(1H-benzoimidazol-2-yl)-11b-ethyl-3-propyl-2,3,4,4a,5,6,7,11b-octahydro-1H-dibenzo[a,c]cyclohepten-3-ol] | 0.1 to 1
CC[C@]1(O)CC[C@]2(Cc3ccccc3)c3ccc(C(=O)Nc4cccnc4C)cc3CCC[C@@H]2C1 (single isomer, unassigned) [Example 15] | 0.1 to 1
CC[C@]1(O)CC[C@]2(Cc3ccccc3)c3ccc(C(=O)Nc4cccnc4C)cc3C(=O)CC[C@@H]2C1 (single isomer, unassigned) [Example 25] | 1 to 10
CCC[C@]1(O)CC[C@]2(CC)c3ccc(C(=O)Nc4cccnc4C)cc3CCC[C@@H]2C1 (single isomer, unassigned) [Example 44] | 0.1 to 1
CC[C@]12CC[C@](C)(O)C[C@H]1CCCc1cc(C(=O)Nc3cccnc3C)ccc12 (single isomer, unassigned) [Example 59] | 1 to 10
CCC[C@@]1(O)CC[C@@]2(CC)c3ccc(C(=O)Nc4cccnc4C)cc3C(=O)CC[C@H]2C1 (single isomer, unassigned) [Example 61] | 0.1 to 1
CCC[C@]1(O)CC[C@]2(CC)c3ccc(C(=O)Nc4cccnc4C)cc3OCC[C@@H]2C1 (single isomer, unassigned) [Example 120] | 0.1 to 1
CC[C@]12CC[C@@](O)(c3ccccc3)C[C@H]1CCCc1cc(C(=O)Nc3cccnc3C)ccc12 (single isomer, unassigned) [Example 123] | 0.1 to 1
CC[C@@]12C[C@@H](O)[C@](O)(c3ccccc3)C[C@@H]1CCCc1cc(C(=O)Nc3cccnc3C)ccc12 (single isomer, unassigned) [Example 124] | 1 to 10
CCC[C@@]1(O)CC[C@@]2(CC)c3ccc(C(=O)Nc4cccnc4C)cc3C=CC[C@H]2C1 (single isomer, unassigned) [Example 129] | 0.1 to 1
CCC[C@]1(O)CC[C@]2(CC)c3ccc(C(=O)Nc4cccnc4C)cc3C=CC[C@@H]2C1 (single isomer, unassigned) [Example 130] | < 0.1
CCC[C@]1(O)CC[C@]2(CC)c3ccc(C(=O)Nc4cccnc4C)cc3COC[C@@H]2C1 (single isomer, unassigned) [Example 137] | 1 to 10
CCC[C@@]1(O)CC[C@@]2(CC)c3ccc(C(=O)Nc4cccnc4C)cc3COC[C@H]2C1 (single isomer, unassigned) [Example 138] | < 0.1
CCC[C@@]1(O)CC[C@@]2(CC)c3ccc(-c4nc5ccccc5[nH]4)cc3CCC[C@H]2C1 (single isomer, unassigned) [Example 147] | 1 to 10
CCC[C@]1(O)CC[C@]2(CC)c3ccc(-c4nc5ccccc5[nH]4)cc3CCC[C@@H]2C1 (single isomer, unassigned) [Example 148] | 1 to 10

Now from value to molecule:

IC50 [µM] | SMILES
< 0.1 | CCC[C@@]1(O)CC[C@@]2(CC)c3ccc(C(=O)Nc4ccccc4N)cc3CCC[C@H]2C1 (racemic) [Example 145, (7aS,9R,11aR)-11a-Ethyl-9-hydroxy-9-propyl-6,7,7a,8,9,10,11,11a-octahydro-5H-dibenzo[a,c]cycloheptene-3-carboxylic acid (2-amino-phenyl)-amide; compound with (7aR,9S,11aS)-11a-ethyl-9-hydroxy-9-propyl-6,7,7a,8,9,10,11,11a-octahydro-5H-dibenzo[a,c]cycloheptene-3-carboxylic acid (2-amino-phenyl)-amide]
< 0.1 | CCC[C@@]1(O)CC[C@@]2(CC)c3ccc(C(=O)Nc4cccnc4N)cc3CCC[C@H]2C1 (racemic) [Example 149, (7aS,9R,11aR)-11a-Ethyl-9-hydroxy-9-propyl-6,7,7a,8,9,10,11,11a-octahydro-5H-dibenzo[a,c]cycloheptene-3-carboxylic acid (2-amino-pyridin-3-yl)-amide; compound with (7aR,9S,11aS)-11a-ethyl-9-hydroxy-9-propyl-6,7,7a,8,9,10,11,11a-octahydro-5H-dibenzo[a,c]cycloheptene-3-carboxylic acid(2-amino-pyridin-3-yl)-amide]
< 0.1 | CCC[C@@]1(O)CC[C@@]2(CC3CC3)c3ccc(C(=O)Nc4cccnc4C)cc3CCC[C@H]2C1 (racemic) [Example 150, (7aR,9R,11aS)-11a-Cyclopropylmethyl-9-hydroxy-9-propyl-6,7,7a,8,9,10,11,11a-octahydro-5H-dibenzo[a,c]cycloheptene-3-carboxylic acid (2-methyl-pyridin-3-yl)-amide; compound with (7aS,9S,11aR)-11a-cyclopropylmethyl-9-hydroxy-9-propyl-6,7,7a,8,9,10,11,11a-octahydro-5H-dibenzo[a,c]cycloheptene-3-carboxylic acid (2-methyl-pyridin-3-yl)-amide]
< 0.1 | CC[C@@]1(O)CC[C@@]2(Cc3ccccc3)c3ccc(C(=O)Nc4cccnc4C)cc3CCC[C@H]2C1 (single isomer, unassigned) [Example 14]
< 0.1 | CC[C@@]1(O)CC[C@@]2(Cc3ccccc3)c3ccc(C(=O)Nc4cccnc4C)cc3C(=O)CC[C@H]2C1 (single isomer, unassigned) [Example 24]
< 0.1 | CCC[C@@]1(O)CC[C@@]2(CC)c3ccc(C(=O)Nc4cccnc4C)cc3CCC[C@H]2C1 (single isomer, unassigned) [Example 45]
< 0.1 | CC[C@@]12CC[C@@](C)(O)C[C@@H]1CCCc1cc(C(=O)Nc3cccnc3C)ccc12 (single isomer, unassigned) [Example 60]
< 0.1 | CCC[C@]1(O)CC[C@]2(CC)c3ccc(C(=O)Nc4cccnc4C)cc3C(=O)CC[C@@H]2C1 (single isomer, unassigned) [Example 62]
< 0.1 | Cc1ncccc1NC(=O)c1ccc2c(c1)CCC[C@@H]1C[C@](C)(O)CC[C@@]21Cc1ccccc1 (single isomer, unassigned) [Example 90]
< 0.1 | CCC[C@@]1(O)CC[C@@]2(CC)c3ccc(C(=O)Nc4cccnc4C)cc3OCC[C@H]2C1 (single isomer, unassigned) [Example 121]
< 0.1 | CC[C@@]12CC[C@](O)(c3ccccc3)C[C@@H]1CCCc1cc(C(=O)Nc3cccnc3C)ccc12 (single isomer, unassigned) [Example 122]
< 0.1 | CC[C@]12C[C@H](O)[C@@](O)(c3ccccc3)C[C@H]1CCCc1cc(C(=O)Nc3cccnc3C)ccc12 (single isomer, unassigned) [Example 125]
